Source: the supplement of paper PMC10307832

Columns and labels:
Assay in all cases: relative viability (nuclei count vs DMSO), 5 days (fraction); higher = more cells survive
Bleomycin + Navitoclax = compound: CC1=C(N=C(N=C1N)[C@H](CC(=O)N)NC[C@@H](C(=O)N)N)C(=O)N[C@@H]([C@H](C2=CN=CN2)OC3C(C(C(C(O3)CO)O)O)OC4C(C(C(C(O4)CO)O)OC(=O)N)O)C(=O)N[C@H](C)[C@H]([C@H](C)C(=O)N[C@@H]([C@@H](C)O)C(=O)NCCC5=NC(=CS5)C6=NC(=CS6)C(=O)NCCC[S+](C)C)O [Bleomycin] + CC1(C)CCC(c2ccc(Cl)cc2)=C(CN2CCN(c3ccc(C(=O)NS(=O)(=O)c4ccc(N[C@H](CCN5CCOCC5)CSc5ccccc5)c(S(=O)(=O)C(F)(F)F)c4)cc3)CC2)C1 [Navitoclax] (partner 0.5 µM); conditions: main component drawn
Procedure, shortened: (§1)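 Each reported value is a median over duplicate plates. It expresses relative viability: treated-well nuclei count divided by vehicle-well nuclei count. Lung cancer cell lines in 1536-well plates were dosed by pin tool a day after seeding, alone with one drug or with a fixed anchor-drug dose plus five library-drug doses (not always all listed) in √10 steps, and nuclei were counted after 5 days.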

Etoposide + Crizotinib = compound: COc1cc([C@@H]2c3cc4c(cc3[C@@H](O[C@@H]3O[C@@H]5CO[C@@H](C)O[C@H]5[C@H](O)[C@H]3O)[C@H]3COC(=O)[C@H]23)OCO4)cc(OC)c1O [Etoposide] + C[C@@H](Oc1cc(-c2cnn(C3CCNCC3)c2)cnc1N)c1c(Cl)ccc(F)c1Cl [Crizotinib] (partner 1 µM)
Procedure, shortened: as §1

Etoposide + Linsitinib = compound: COc1cc([C@@H]2c3cc4c(cc3[C@@H](O[C@@H]3O[C@@H]5CO[C@@H](C)O[C@H]5[C@H](O)[C@H]3O)[C@H]3COC(=O)[C@H]23)OCO4)cc(OC)c1O [Etoposide] + C[C@]1(O)C[C@@H](c2nc(-c3ccc4ccc(-c5ccccc5)nc4c3)c3c(N)nccn32)C1 [Linsitinib] (partner 1 µM)
Procedure, shortened: as §1

Bleomycin + Palbociclib = compound: CC1=C(N=C(N=C1N)[C@H](CC(=O)N)NC[C@@H](C(=O)N)N)C(=O)N[C@@H]([C@H](C2=CN=CN2)OC3C(C(C(C(O3)CO)O)O)OC4C(C(C(C(O4)CO)O)OC(=O)N)O)C(=O)N[C@H](C)[C@H]([C@H](C)C(=O)N[C@@H]([C@@H](C)O)C(=O)NCCC5=NC(=CS5)C6=NC(=CS6)C(=O)NCCC[S+](C)C)O [Bleomycin] + CC(=O)c1c(C)c2cnc(Nc3ccc(N4CCNCC4)cn3)nc2n(C2CCCC2)c1=O [Palbociclib] (partner 0.5 µM); conditions: main component drawn
Procedure, shortened: as §1

| Cell Line | relative viability (Bleomycin + Navitoclax; first compound 0.01 µM) | relative viability (Bleomycin + Navitoclax; first compound 0.03162 µM) | relative viability (Bleomycin + Navitoclax; first compound 0.1 µM) | relative viability (Bleomycin + Navitoclax; first compound 0.3162 µM) | relative viability (Bleomycin + Navitoclax; first compound 1 µM) | relative viability (Etoposide + Crizotinib; first compound 0.01 µM) | relative viability (Etoposide + Crizotinib; first compound 0.03162 µM) | relative viability (Etoposide + Crizotinib; first compound 0.1 µM) | relative viability (Etoposide + Crizotinib; first compound 0.3162 µM) | relative viability (Etoposide + Crizotinib; first compound 1 µM) | relative viability (Etoposide + Linsitinib; first compound 0.01 µM) | relative viability (Etoposide + Linsitinib; first compound 0.03162 µM) | relative viability (Etoposide + Linsitinib; first compound 0.1 µM) | relative viability (Etoposide + Linsitinib; first compound 0.3162 µM) | relative viability (Etoposide + Linsitinib; first compound 1 µM) | relative viability (Bleomycin + Palbociclib; first compound 0.01 µM) | relative viability (Bleomycin + Palbociclib; first compound 0.03162 µM) | relative viability (Bleomycin + Palbociclib; first compound 0.1 µM) | relative viability (Bleomycin + Palbociclib; first compound 0.3162 µM) | relative viability (Bleomycin + Palbociclib; first compound 1 µM) |
| --- | --- | --- | --- | --- | --- | --- | --- | --- | --- | --- | --- | --- | --- | --- | --- | --- | --- | --- | --- | --- |
| Calu-6 | 0.459 | 0.336 | 0.207 | 0.114 | 0.0817 | 0.751 | 0.862 | 0.964 | 0.575 | 0.362 | 0.914 | 1.01 | 0.819 | 0.758 | 0.39 | – | – | – | – | – |
| ChaGo-K-1 | – | 0.914 | 0.724 | 0.386 | 0.307 | 1.08 | 0.888 | 0.576 | 0.306 | 0.304 | – | – | – | – | – | 0.847 | 0.831 | 0.862 | 0.512 | 0.386 |
| EBC-1 | 0.392 | 0.527 | 0.379 | 0.274 | 0.269 | 0.189 | 0.202 | – | 0.197 | 0.194 | 0.903 | 0.942 | 0.349 | 0.788 | 0.466 | – | – | – | – | – |
| EKVX | 0.75 | 0.925 | 0.842 | 0.424 | 0.285 | 0.868 | 0.916 | 0.891 | 0.816 | 0.414 | 0.979 | 0.978 | 0.805 | 0.712 | 0.399 | 0.366 | 0.366 | 0.299 | 0.209 | 0.189 |
| EMC-BAC-2 | 1.04 | 1.18 | 0.979 | 0.661 | 0.399 | 0.661 | 0.527 | 0.382 | 0.2 | 0.161 | 0.719 | 0.803 | 0.58 | 0.273 | 0.186 | 0.378 | 0.433 | 0.414 | 0.333 | 0.293 |
| EPLC-272H | 0.793 | 0.888 | 0.826 | 1.29 | 0.159 | 1.07 | 1.03 | 0.628 | 0.703 | 0.489 | 1.29 | 1.12 | 0.693 | 1.14 | 0.504 | 0.329 | 0.311 | 0.311 | 0.213 | 0.218 |
| H3255 | 0.395 | 0.596 | 0.495 | 0.229 | 0.179 | 0.802 | 0.841 | 0.667 | 0.537 | 0.231 | 0.872 | 1.11 | 0.815 | 0.713 | 0.336 | 0.324 | 0.324 | 0.283 | 0.312 | 0.279 |
| HARA | 1.1 | 1.08 | 1.02 | 0.747 | 0.601 | 0.801 | 1.11 | 1.11 | 0.611 | 0.192 | 0.892 | 1.15 | 1.04 | 0.738 | 0.182 | 0.219 | 0.291 | 0.252 | 0.188 | 0.197 |
